Data reported in PubChem BioAssay (NCI).
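Briefly, cells in 96-well plates were exposed to five compound concentrations for 48 h, and endpoints were estimated by linear interpolation. GI50 = concentration required for 50% inhibition of growth. At the TGI there is no net growth.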

Columns and labels:
Test in all cases: NCI anticancer screen, dose series, 48 h
[1] = tested on: 786-0 renal
[2] = tested on: A498 renal
[3] = tested on: A549 NSCLC
[4] = tested on: ACHN renal
[5] = tested on: BT-549 breast
[6] = tested on: CAKI-1 renal
[7] = tested on: CCRF-CEM leukemia
[8] = tested on: COLO 205 colon
[9] = tested on: DU-145 prostate
[10] = tested on: EKVX NSCLC
[11] = tested on: HCC-2998 colon
[12] = tested on: HCT-116 colon
[13] = tested on: HCT-15 colon
[14] = tested on: HL-60(TB) leukemia
[15] = tested on: HOP-62 NSCLC
[16] = tested on: HOP-92 NSCLC
[17] = tested on: HS 578T breast
[18] = tested on: HT29 colon
[19] = tested on: IGROV1 ovarian
[20] = tested on: K-562 leukemia
[21] = tested on: KM12 colon
[22] = tested on: LOX IMVI melanoma
[23] = tested on: MALME-3M melanoma
[24] = tested on: MCF7 breast
[25] = tested on: MDA-MB-231 breast
[26] = tested on: MDA-MB-435
[27] = tested on: MOLT-4 leukemia
[28] = tested on: NCI-H226 lung
[29] = tested on: NCI-H23 lung
[30] = tested on: NCI-H460 lung
[31] = tested on: NCI-H522 lung
[32] = tested on: NCI/ADR-RES ovarian
[33] = tested on: OVCAR-3 ovarian
[34] = tested on: OVCAR-4 ovarian
[35] = tested on: OVCAR-5 ovarian
[36] = tested on: OVCAR-8 ovarian
[37] = tested on: PC-3 prostate
[38] = tested on: RPMI-8226 leukemia
[39] = tested on: RXF 393 renal
[40] = tested on: SF-268 CNS
[41] = tested on: SF-295 CNS
[42] = tested on: SF-539 CNS
[43] = tested on: SK-MEL-2 melanoma
[44] = tested on: SK-MEL-28 melanoma
[45] = tested on: SK-MEL-5 melanoma
[46] = tested on: SK-OV-3 ovarian
[47] = tested on: SN12C renal
[48] = tested on: SNB-19 CNS
[49] = tested on: SNB-75 CNS
[50] = tested on: SR leukemia
[51] = tested on: SW-620 colon
[52] = tested on: T-47D breast
[53] = tested on: TK-10 renal
[54] = tested on: U251 CNS
[55] = tested on: UACC-257 melanoma
[56] = tested on: UACC-62 melanoma
[57] = tested on: UO-31 renal

In the case of `CCN(CC)S(=O)(=O)c1ccc(-c2nc(C(Cl)Cl)nc3cc(-c4ccc(F)cc4)nn23)cc1`, the GI50 [1] is reported as 5.37 µM, the TGI [1] is reported as greater than 100 µM and the GI50 [2] is reported as 1.33 µM. It also gave a TGI [2] of 4.7 µM, a GI50 [3] of 2.52 µM and a TGI [3] of 10.1 µM. The GI50 [4] was 1.16 µM, the TGI [4] was 3.57 µM and the GI50 [5] was 18.5 µM. For the same compound, the TGI [5] was greater than 100 µM, the GI50 [6] was 2.38 µM and the TGI [6] was 13.3 µM. It also gave a GI50 [7] greater than 100 µM, a TGI [7] greater than 100 µM and a GI50 [8] of 2.02 µM. The TGI [8] was 6.16 µM, the GI50 [9] was 1.34 µM and the TGI [9] was 2.98 µM. The GI50 [10] was 2.28 µM, the TGI [10] was 6.57 µM and the GI50 [11] was 1.89 µM. It also gave a TGI [11] of 4.15 µM, a GI50 [12] of 1.73 µM and a TGI [12] greater than 100 µM. For the same compound, the GI50 [13] was 1.32 µM, the TGI [13] was greater than 100 µM and the GI50 [14] was 1.58 µM. The TGI [14] was 6.65 µM, the GI50 [15] was 3.21 µM and the TGI [15] was greater than 100 µM. The GI50 [16] was 2 µM, the TGI [16] was 5.47 µM and the GI50 [17] was 3.56 µM. For the same compound, the TGI [17] was 93.2 µM, the GI50 [18] was 1.55 µM and the TGI [18] was 4.77 µM. The GI50 [19] was 3.38 µM, the TGI [19] was greater than 100 µM and the GI50 [20] was 1.83 µM. It also gave a TGI [20] greater than 100 µM, a GI50 [21] of 1.89 µM and a TGI [21] of 9.43 µM. It also gave a GI50 [22] of 6.37 µM, a TGI [22] greater than 100 µM and a GI50 [23] greater than 100 µM. It also gave a TGI [23] greater than 100 µM, a GI50 [24] of 2.66 µM and a TGI [24] greater than 100 µM. For the same compound, the GI50 [25] was 2.01 µM, the TGI [25] was 7.27 µM and the GI50 [26] was 3.02 µM. The TGI [26] was greater than 100 µM, the GI50 [27] was 8.19 µM and the TGI [27] was greater than 100 µM. The GI50 [28] was 3.77 µM, the TGI [28] was greater than 100 µM and the GI50 [29] was 2.49 µM. It also gave a TGI [29] of 20.6 µM, a GI50 [30] of 0.923 µM and a TGI [30] of 3.07 µM. It also gave a GI50 [31] greater than 100 µM, a TGI [31] greater than 100 µM and a GI50 [32] of 2.24 µM. It also gave a TGI [32] greater than 100 µM, a GI50 [33] of 1.15 µM and a TGI [33] of 2.87 µM. It also gave a GI50 [34] of 3.71 µM, a TGI [34] greater than 100 µM and a GI50 [35] of 3.04 µM. It also gave a TGI [35] greater than 100 µM, a GI50 [36] of 3.94 µM and a TGI [36] greater than 100 µM. For the same compound, the GI50 [37] was 2.61 µM, the TGI [37] was 18.6 µM and the GI50 [38] was 0.733 µM. The TGI [38] was 3.79 µM, the GI50 [39] was 1.54 µM and the TGI [39] was 3.41 µM. For the same compound, the GI50 [40] was 5.14 µM, the TGI [40] was greater than 100 µM and the GI50 [41] was 2.29 µM. The TGI [41] was 12.8 µM, the GI50 [42] was 2.24 µM and the TGI [42] was 8.88 µM. The GI50 [43] was greater than 100 µM, the TGI [43] was greater than 100 µM and the GI50 [44] was 2.73 µM. For the same compound, the TGI [44] was 10.8 µM, the GI50 [45] was greater than 100 µM and the TGI [45] was greater than 100 µM. The GI50 [46] was 4.09 µM, the TGI [46] was greater than 100 µM and the GI50 [47] was 15.7 µM. For the same compound, the TGI [47] was greater than 100 µM, the GI50 [48] was 3.7 µM and the TGI [48] was greater than 100 µM. For the same compound, the GI50 [49] was 11.7 µM, the TGI [49] was greater than 100 µM and the GI50 [50] was 2.69 µM. It also gave a TGI [50] greater than 100 µM, a GI50 [51] of 1.41 µM and a TGI [51] greater than 100 µM. The GI50 [52] was 2.94 µM, the TGI [52] was greater than 100 µM and the GI50 [53] was 2.99 µM. It also gave a TGI [53] of 8.72 µM, a GI50 [54] of 2.21 µM and a TGI [54] of 14.4 µM. For the same compound, the GI50 [55] was 5.51 µM, the TGI [55] was greater than 100 µM and the GI50 [56] was 4.03 µM. The TGI [56] was greater than 100 µM, the GI50 [57] was 2.27 µM and the TGI [57] was 8.99 µM.
